Experimental findings from US12552748B2, “Pyridine (thio)amides as fungicidal compounds” (Bayer Aktiengesellschaft, priority 2020, dated 2026) are described below.

Marks after values point to notes of the source that are not given here.

This data set is described as follows: physchem. The data set is classed as physicochemical. On the procedure: Measurement of Log P values as provided herein was performed according to EEC directive 79/831 Annex V.A8 by HPLC (High Performance Liquid Chromatography) on reversed phase columns with the following methods: […] If more than one Log P value is available within the same method, all the values are given and separated by “+”. Calibration was done with straight-chain alkan2-ones (with 3 to 16 carbon atoms) with known Log P values (measurement of Log P values using retention times with linear interpolation between successive alkanones). Lambda-max-values were determined using UV-spectra from 200 nm to 400 nm and the peak values of the chromatographic signals
For the compound `Cc1ccc(CCNC(=O)c2cc(Cl)ncc2Oc2cccc(Cl)c2F)c(C)c1` [Compound I-128], the LogP was 4.71^[a].
The same measure, in the same setting: to `CCc1cccc(Oc2cnc(Cl)cc2C(=O)NCCc2ccc(C)cc2C)c1` [Compound I-135] belongs 5.23^[a].
With `Cc1cccc(Oc2cnc(Cl)cc2C(=O)NCC(F)(F)c2ccc(C)cc2C)c1` [Compound I-044], the LogP was 4.85^[a].
For the compound `Cc1ccc(CCNC(=O)c2cc(C)ncc2Oc2cccc(C(F)F)c2)c(C)c1` [Compound I-183], the LogP is 3.56^[a].
Regarding `Cc1ccc(C(F)CNC(=O)c2cc(C)ncc2Oc2cccc(C3CC3)c2F)c(Cl)c1` (racemic) [Compound I-076], the LogP is 4.49^[a].
Consider `Cc1ccc(CCNC(=O)c2cc(-c3ccncc3Cl)ncc2Oc2cccc(C(F)(F)F)c2)c(C)c1` [Compound I-204], for which the LogP is 4.61^[a].
Consider `O=C(NCCn1cc(Cl)cn1)c1cc(Cl)ncc1Oc1cccc(C(F)(F)F)c1` [Compound I-098], for which the LogP is 3.40^[a].
Still for that read-out and setting: in the case of `O=C(NCCc1ccc2[nH]cnc2c1)c1cc(Cl)ncc1Oc1cccc(C(F)(F)F)c1` [Compound I-197] it was 1.82^[a]; in that of `C#Cc1ccc(C(F)(F)CNC(=O)c2cc(Cl)ncc2Oc2cccc(C(F)(F)F)c2)c(Cl)c1` [Compound I-029], 4.53^[a]; in that of `Cc1cc(C(=O)NCC(F)c2ccc(Cl)cc2Cl)c(Oc2cccc(C3CC3)c2)cn1` (stereo not shown) [Compound I-220], 4.44^[a].
In the case of `Cc1ccc(CCNC(=O)c2cc(-c3cn[nH]c3)ncc2Oc2cccc(C(F)(F)F)c2)c(C)c1` [Compound I-206], the LogP was 3.63^[a].
As to `COc1cccc(Oc2cnc(C)cc2C(=O)NCCc2ccc(C)cc2C)c1` [Compound I-180], the LogP was 3.50^[a].
Take `CCc1cc(C(=O)NCCc2ccc(C)cc2C)c(Oc2cccc(C(F)(F)F)c2)cn1` [Compound I-030]: the LogP is 4.49^[a].
Consider `Cc1ccc(CCNC(=O)c2cc(Cl)ncc2Oc2ccc3c(c2)CCC3)c(C)c1` [Compound I-232], for which the LogP is 5.49^[a].
As to `CON(CCc1ccc(Cl)cc1Cl)C(=O)c1cc(Cl)ncc1Oc1cccc(C(F)(F)F)c1` [Compound I-177], the LogP was 5.24^[a].
As to `Cc1cccc(Oc2cnc(Cl)cc2C(=O)NCCc2ccc(C)cc2C)c1` [Compound I-045], the LogP was 4.84^[a].
For `Cc1ccc(C(F)(F)CNC(=O)c2cc(Cl)nc(F)c2Oc2cccc(C(F)(F)F)c2)c(C)c1` [Compound I-092], the LogP was 5.04^[a].
With `Cc1ccc(C(F)CNC(=O)c2cc(Cl)ncc2Oc2cccc(C(F)(F)F)c2)cc1C` (racemic) [Compound I-079], the LogP is 4.70^[a].
For `Cc1ccc(CCNC(=O)c2cc(Cl)ncc2Oc2cccc(-c3ccccc3)c2)c(C)c1` [Compound I-151], the LogP was 5.44^[a].
Turning to `N#Cc1nc(Cl)cc(C(=O)NCC(F)(F)c2ccc(Cl)cc2)c1Oc1cccc(C(F)(F)F)c1` [Compound I-221], the LogP is 4.39^[a].
In the case of `COc1cccc(Oc2cnc(Cl)cc2C(=O)NCC(F)c2ccc(Cl)cc2Cl)c1` (racemic) [Compound I-041], the LogP was 4.51^[a].
Same read-out and setting: to `Cc1ccc(C(F)(F)CNC(=O)c2cc(Cl)ncc2Oc2cccc(C(F)(F)F)c2)c(Cl)c1` [Compound I-201] belongs 4.66^[a]; to `Cc1ccc(CCNC(=O)c2cc(Cl)ncc2Oc2cccc(C(F)F)c2)c(C)c1` [Compound I-039], 4.30^[a]; to `O=C(NCC(F)(F)c1ccc(Cl)cc1Cl)c1cc(Cl)ncc1Oc1cccc(C(F)(F)F)c1` [Compound I-009], 4.82^[a].
Regarding `C#Cc1cc(C(=O)OC)c(Oc2cccc(C(F)(F)F)c2)cn1` [Compound 1-003], the LogP is 3.46^[a].
With `Cc1ccc(C(F)(F)CNC(=O)c2c(Oc3cccc(Cl)c3)cnc(Cl)c2Cl)c(C)c1` [Compound I-175], the LogP is 4.85^[a].
Still for that read-out and setting: to `CON=C(C)c1cc(C(=O)NCCc2ccc(C)cc2C)c(Oc2cccc(C(F)(F)F)c2)cn1` (mixture of isomers) [Compound I-251] belongs 5.36^[a]; to `Cc1ccc(CCNC(=O)c2cc(Cl)ncc2Oc2cccc(OC(F)(F)F)c2)c(C)c1` [Compound I-025], 4.97^[a].
With `O=C(NCCc1ccc(C(F)(F)F)cc1Cl)c1cc(Cl)ncc1Oc1cccc(C(F)(F)F)c1` [Compound I-192], the LogP was 4.95^[a].
Still for that read-out and setting: in the case of `Cc1cc(Cl)ccc1C(F)CNC(=O)c1cc(Cl)ncc1Oc1cccc(C(F)(F)F)c1` (racemic) [Compound I-084] it was 4.81^[a]; in that of `Cc1ccc(C(F)(F)CNC(=O)c2cc(Cl)ncc2Oc2cccc(Cl)c2)c(C)c1` [Compound I-036], 4.74^[a]; in that of `C#Cc1cc(C(=O)NCC(F)(F)c2ccc(C)cc2C)c(Oc2cccc(C(F)(F)F)c2)cn1` [Compound I-032], 4.39^[a].
For the compound `CC(=O)c1cccc(Oc2cnc(Cl)cc2C(=O)NCCc2ccc(C)cc2C)c1` [Compound I-014], the LogP was 3.87^[a].
The same measure, in the same setting: to `CO/N=C(/C)c1cc(C(=O)NCCc2ccc(C)cc2C)c(Oc2cccc(C(F)(F)F)c2)cn1` [Compound I-094] belongs 4.85^[a].
For `Cc1ccc(C(F)(F)CNC(=O)c2cc(Cl)ncc2Oc2cccc(C3CC3)c2F)c(C)c1` [Compound I-061], the LogP is 5.11^[a].
In the case of `Cc1ccc(CCNC(=O)c2cc(Cl)ncc2Oc2ccc(Cl)c(C(F)(F)F)c2)c(C)c1` [Compound I-254], the LogP was 5.09^[a].
Same read-out and setting: in the case of `Cc1ccc(CCNC(=O)c2cc(Cl)ncc2Oc2cccc(C3CCC3)c2)c(C)c1` [Compound I-257] it was 5.84^[a]; in that of `O=C(NCC(F)(F)c1ccc(Br)cc1Cl)c1cc(Cl)ncc1Br` [Compound 3-004], 3.68^[a]; in that of `Cc1ccc(CCNC(=O)c2cc(Cl)ncc2Oc2cccc(C)c2F)c(C)c1` [Compound I-131], 4.76^[a].
As to `Cc1ccc(CCNC(=O)c2cc(C3CCCC3)ncc2Oc2cccc(C(F)(F)F)c2)c(C)c1` [Compound I-122], the LogP was 5.57^[a].
Take `CNc1c(Cl)ncc(Oc2cccc(C(F)(F)F)c2)c1C(=O)NCC(F)(F)c1ccc(C)cc1C` [Compound I-217]: the LogP was 4.44^[a].
As for `O=C(NCC(F)(F)c1ccc(Cl)cn1)c1cc(Cl)ncc1Oc1cccc(C(F)(F)F)c1` [Compound I-260], the LogP was 3.99^[a].
On to `N#CN(CCc1ccc(Cl)cc1)C(=O)c1cc(Cl)ncc1Oc1cccc(C(F)(F)F)c1` [Compound I-207], for which the LogP was 4.89^[a].
Take `O=C(NCC(F)(F)c1ccc(Br)cc1Cl)c1cc(Cl)ncc1Oc1cccc(C(F)(F)F)c1` [Compound I-001]: the LogP was 5.00^[a].
For `O=C(NCC(F)(F)c1ccc(Br)cc1Cl)c1c(Oc2cccc(C(F)(F)F)c2)cnc(Cl)c1I` [Compound I-046], the LogP was 4.96^[a].
Consider `CCc1cc(Oc2cnc(Cl)cc2C(=O)NCCc2ccc(C)cc2C)c(C(=O)OC)s1` [Compound I-162], for which the LogP is 4.51^[a].
Still for that read-out and setting: to `Cc1ccc(C(F)(F)CNC(=O)c2c(Br)cnc(Cl)c2Oc2cccc(Cl)c2)c(C)c1` [Compound I-178] belongs 5.04^[a]; to `Cc1cccc(Oc2cnc(C)cc2C(=O)NCC(F)c2ccc(Cl)cc2Cl)c1` (racemic) [Compound I-161], 4.13^[a].
With `Cc1ccc(C(F)(F)CNC(=O)c2cc(Cl)ncc2Oc2cccc(C(F)(F)F)c2C)c(C)c1` [Compound I-023], the LogP was 5.14^[a].
For `Cc1ccc(CCNC(=O)c2cc(Cl)ncc2Oc2cccc(OC(F)F)c2)c(C)c1` [Compound I-136], the LogP is 4.43^[a].
With `Cc1ccc(C(F)(F)CNC(=O)c2c(Oc3cccc(C(F)(F)F)c3)cnc(N3CCCC3)c2I)c(C)c1` [Compound I-231], the LogP was 5.57^[a].
The same measure, in the same setting: to `Cc1ccc(CCNC(=O)c2cc(Cl)ncc2Oc2cccc(C(F)(F)F)c2)o1` [Compound I-095] belongs 4.05^[a].
Consider `Cc1ccc(C(F)CNC(=O)c2cc(C)ncc2Oc2cccc(Cl)c2)c(Cl)c1` (racemic) [Compound I-054], for which the LogP is 3.98^[a].
`Cc1ccc(CCNC(=O)c2cc(Cl)ncc2Br)c(C)c1` [Compound 3-001, 5-bromo-2-chloro-N-[2-(2,4-dimethylphenyl)ethyl]pyridine-4-carboxamide] showed a chromatographic logP of 3.4.
Consider `Cc1ccc(CCNC(=O)c2cc(C)ncc2Oc2cccc(Cl)c2)c(C)c1` [Compound I-234], for which the LogP was 3.96^[a].
As for `O=C(NCC(F)(F)c1ccc(Cl)cc1)c1cc(Cl)ncc1Oc1cccc(C(F)(F)F)c1` [Compound I-011], the LogP was 4.41^[a].
Regarding `Cc1ccc(CCNC(=O)c2cc(Cl)ncc2Oc2cccc3c2CCC3)c(C)c1` [Compound I-150], the LogP was 5.45^[a].
On to `CCc1cc(C(=O)NCC(F)c2ccc(Cl)cc2Cl)c(Oc2cccc(C3CC3)c2)cn1` (racemic) [Compound I-190], for which the LogP was 4.92^[a].
Take `Cc1ccc(C(F)(F)CNC(=O)c2cc(C)ncc2Oc2cccc(C3CC3)c2F)c(C)c1` [Compound I-069]: the LogP was 4.46^[a].
With `Cc1ccc(C(F)(F)CNC(=O)c2cc(Cl)ncc2Br)c(C)c1` [Compound 3-003], the LogP was 3.57^[a].
Take `Cc1ccc(CCNC(=O)c2cc(C(F)(F)F)ncc2Oc2cccc(C(F)(F)F)c2)c(C)c1` [Compound I-208]: the LogP was 5.04^[a].
Regarding `Cc1ccc(CCNC(=O)c2cc(C)ncc2Oc2cccc(C3CC3)c2)c(C)c1` [Compound I-242], the LogP is 4.27^[a].
Regarding `O=C(NCC(F)(F)c1ccc(-c2ccncc2Cl)cc1Cl)c1cc(Cl)ncc1Oc1cccc(C(F)(F)F)c1` [Compound I-266], the LogP is 4.51^[a].
Consider `O=C(NCCc1ccc2[nH]ccc2c1)c1cc(Cl)ncc1Oc1cccc(C(F)(F)F)c1` [Compound I-100], for which the LogP is 3.71^[a].
